According to ChEMBL document CHEMBL4622847, “Synthesis and structure-activity relationships of thieno[2,3-d]pyrimidines as atypical protein kinase C inhibitors to control retinal vascular permeability and cytokine-induced edema” (Bioorg Med Chem, 2020):
The source made the active and inactive calls. The rule behind the calls is not given here.

Tests used:
[1] = target: T1, Protein kinase C zeta type (Homo sapiens, UniProt Q05513); test: Inhibition of recombinant full-length human aPKCzeta using CREBtide as substrate incubated for 3 hrs in presence of ATP by Kinase Glo luminescent assay
T1 sequence (Q05513 whole entry): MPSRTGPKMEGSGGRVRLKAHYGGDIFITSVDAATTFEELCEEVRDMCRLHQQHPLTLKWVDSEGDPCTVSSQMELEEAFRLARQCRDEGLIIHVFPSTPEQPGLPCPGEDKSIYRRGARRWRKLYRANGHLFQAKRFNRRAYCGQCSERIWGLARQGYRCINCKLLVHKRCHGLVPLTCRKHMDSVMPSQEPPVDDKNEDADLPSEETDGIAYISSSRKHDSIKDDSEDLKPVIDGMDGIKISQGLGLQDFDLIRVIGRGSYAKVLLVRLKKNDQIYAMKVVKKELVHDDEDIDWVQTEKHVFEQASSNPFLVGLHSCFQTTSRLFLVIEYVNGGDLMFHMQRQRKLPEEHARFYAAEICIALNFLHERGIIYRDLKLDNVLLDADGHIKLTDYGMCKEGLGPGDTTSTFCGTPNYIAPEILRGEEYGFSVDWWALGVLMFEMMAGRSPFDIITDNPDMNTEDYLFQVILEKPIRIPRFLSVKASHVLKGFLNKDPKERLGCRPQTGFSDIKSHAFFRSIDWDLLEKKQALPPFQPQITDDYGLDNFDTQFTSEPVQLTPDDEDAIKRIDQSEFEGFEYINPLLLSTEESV

[2] = Inhibition of VEGF-induced permeability in BREC cells incubated for 2 hrs; assay type: functional, cell-based, Bos taurus
Bos taurus [3] = species: Bos taurus; test: Inhibition of VEGF-induced permeability in BREC cells at 3 uM incubated for 2 hrs; assay type: functional, cell-based
Bos taurus [4] = species: Bos taurus; test: Inhibition of VEGF-induced permeability in BREC cells in presence of Y-27632; assay type: functional, cell-based
[5] = Ratio of drug level in CD-1 mouse brain to plasma at 10 mg/kg, iv after 4 hrs by LCMS analysis; assay type: ADME, organism-based
[6] = target: Protein kinase C beta type (Homo sapiens) (UniProt P05771); test: Inhibition of PKCbeta1 (unknown origin) at 5 uM by radiometric kinase assay
[7] = AUC in CD1 mouse plasma at 10 mg/kg, iv measured up to 24 hrs; assay type: ADME, organism-based; set-up: dose 10 mg/kg, time < 24 hr, route intravenous; settings: in vivo
[8] = target: T2, Protein kinase C iota type (Homo sapiens, UniProt P41743); test: Inhibition of recombinant full-length human aPKCiota using CREBtide as substrate incubated for 3 hrs in presence of ATP by kinase Glo luminescent assay
T2 sequence (P41743 whole entry): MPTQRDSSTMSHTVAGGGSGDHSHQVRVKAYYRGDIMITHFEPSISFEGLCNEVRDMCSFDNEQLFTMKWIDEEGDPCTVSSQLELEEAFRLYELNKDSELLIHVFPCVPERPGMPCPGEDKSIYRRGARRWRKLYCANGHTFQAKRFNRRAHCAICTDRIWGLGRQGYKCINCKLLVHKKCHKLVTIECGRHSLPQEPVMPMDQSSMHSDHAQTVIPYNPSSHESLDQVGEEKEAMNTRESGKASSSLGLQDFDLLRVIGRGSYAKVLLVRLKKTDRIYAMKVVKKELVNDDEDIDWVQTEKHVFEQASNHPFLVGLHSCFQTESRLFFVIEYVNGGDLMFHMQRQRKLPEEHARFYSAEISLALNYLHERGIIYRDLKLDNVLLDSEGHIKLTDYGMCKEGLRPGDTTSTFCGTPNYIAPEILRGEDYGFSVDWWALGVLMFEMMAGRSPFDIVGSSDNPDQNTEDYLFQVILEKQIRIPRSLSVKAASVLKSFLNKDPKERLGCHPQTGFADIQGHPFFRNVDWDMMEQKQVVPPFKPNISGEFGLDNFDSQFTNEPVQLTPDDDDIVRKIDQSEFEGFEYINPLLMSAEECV

[9] = target: T2, Protein kinase C iota type; test: Inhibition of recombinant full-length human aPKCiota in presence of ATP at Km concentration by radiometric assay
[10] = Terminal elimination half life in CD1 mouse plasma at 10 mg/kg, iv measured up to 24 hrs; assay type: ADME, organism-based; settings: in vivo
Homo sapiens [11] = species: Homo sapiens; test: Inhibition of PKA (unknown origin) at 5 uM by radiometric kinase assay
[12] = Drug level in iv dosed CD-1 mouse eye after 24 hrs by LCMS analysis; assay type: ADME, organism-based; settings: read-out: Drug uptake
[13] = Tmax in CD1 mouse plasma at 20 mg/kg, po measured up to 24 hrs; assay type: ADME, organism-based; settings: in vivo
[14] = Ratio of drug level in CD-1 mouse eye to brain at 20 mg/kg, po after 4 hrs by LCMS analysis; assay type: ADME, organism-based; settings: in vivo
[15] = Inhibition of TNFalpha-induced NFkappaB activation in HEK293 cells preincubated for 2 hrs followed by TNFalpha stimulation by luciferase assay; assay type: cell-based; settings: Homo sapiens
[16] = Ratio of drug level in CD-1 mouse eye to brain at 10 mg/kg, iv after 4 hrs by LCMS analysis; assay type: ADME, organism-based; settings: in vivo
Homo sapiens [17] = species: Homo sapiens; test: Selectivity ratio of IC50 for inhibition of recombinant full-length human aPKCzeta using CREBtide as substrate to IC50 for of recombinant full-length human aPKCiota using CREBtide as substrate
[18] = Inhibition of PKA (unknown origin) by radiometric kinase assay; set-up: species or system Homo sapiens
[19] = AUC in CD1 mouse plasma at 20 mg/kg, po measured up to 24 hrs; assay type: ADME, organism-based; set-up: time < 24 hr, dose 20 mg/kg, route oral; settings: in vivo
[20] = target: Rho-associated protein kinase 2 (Homo sapiens) (UniProt O75116); test: Inhibition of ROCK2 (unknown origin) at 5 uM by radiometric kinase assay
Rattus norvegicus [21] = test: Inhibition of VEGF/TNFalpha-induced retinal vascular permeability in Long-Evans rat at 1 or 3 uM administered intravitreally followed by FITC-BSA, iv injection 3 hrs post drug dose and measured after 2 hrs by spectrophotometric method; assay type: functional, organism-based
HEK293 [22] = test: Inhibition of TNFalpha-induced NFkappaB activation in HEK293 cells at 2.5 to 10 uM preincubated for 2 hrs followed by TNFalpha stimulation by luciferase assay; assay type: cell-based; settings: Homo sapiens
[23] = Oral bioavailability in CD1 mouse plasma at 20 mg/kg measured up to 24 hrs; assay type: ADME, organism-based; settings: in vivo
Bos taurus [24] = species: Bos taurus; test: Inhibition of VEGF-induced permeability in BREC cells at 0.01 to 1.0 uM incubated for 2 hrs; assay type: functional, cell-based
[25] = Terminal elimination half life in CD1 mouse plasma at 20 mg/kg, po and measured up to 24 hrs; assay type: ADME, organism-based; settings: in vivo
HEK293 [26] = test: Cytotoxicity against HEK293 cells assessed as effect on cell survival by WST-1 assay; assay type: cell-based; settings: human
[27] = target: T1, Protein kinase C zeta type; test: Inhibition of recombinant full-length human aPKCzeta in presence of ATP at Km concentration by radiometric assay
[28] = Microsomal stability in CD1 mouse liver microsomes assessed as half life at 1 uM in presence of beta-NADPH measured upto 60 mins by LC-MS/MS analysis; assay type: ADME, Microsome; settings: 1 h
[29] = Ratio of drug level in CD-1 mouse eye to plasma at 10 mg/kg, iv after 4 hrs by LCMS analysis; assay type: ADME, organism-based
Rattus norvegicus [30] = test: Inhibition of VEGF/TNFalpha-induced retinal vascular permeability in Long-Evans rat at 3 uM administered intravitreally followed by FITC-BSA, iv injection 3 hrs post drug dose and measured after 2 hrs by spectrophotometric method relative to control; assay type: functional
[31] = Cmax in CD1 mouse plasma at 20 mg/kg, po measured up to 24 hrs; assay type: ADME, organism-based; set-up: dose 20 mg/kg, route oral; settings: in vivo
Rattus norvegicus [32] = test: Effect on retinal function in overnight dark-adapted Long-Evans rat assessed as A-wave or B-wave amplitude at 3 uM administered intravitreally 3 to 5 hrs prior to exposure to a 0.1 cd.s/m2 to 10 cd.s/m2 test flash by electroretinography; assay type: ADME, organism-based; settings: in vivo, topical_or_ocular
[33] = target: T1, Protein kinase C zeta type; test: Inhibition of recombinant full-length human aPKCzeta expressed in Sf21 insect cells using 5FAM-ERMRPRKRQGSVRRRV-NH2 as substrate in presence of ATP after 60 mins by IMAP fluorescence polarization analysis
Bos taurus [34] = species: Bos taurus; test: Inhibition of VEGF-induced permeability in BREC cells at 1 uM incubated for 2 hrs; assay type: functional, cell-based
Bos taurus [35] = species: Bos taurus; test: Inhibition of VEGF-induced permeability in BREC cells at 0.01 uM incubated for 2 hrs; assay type: functional, cell-based
[36] = Cytotoxicity against […] BREC cells at 0.03 to 1 uM; assay type: cell-based

Sequence of Rho-associated protein kinase 2 (Homo sapiens) (O75116 whole entry, looked up): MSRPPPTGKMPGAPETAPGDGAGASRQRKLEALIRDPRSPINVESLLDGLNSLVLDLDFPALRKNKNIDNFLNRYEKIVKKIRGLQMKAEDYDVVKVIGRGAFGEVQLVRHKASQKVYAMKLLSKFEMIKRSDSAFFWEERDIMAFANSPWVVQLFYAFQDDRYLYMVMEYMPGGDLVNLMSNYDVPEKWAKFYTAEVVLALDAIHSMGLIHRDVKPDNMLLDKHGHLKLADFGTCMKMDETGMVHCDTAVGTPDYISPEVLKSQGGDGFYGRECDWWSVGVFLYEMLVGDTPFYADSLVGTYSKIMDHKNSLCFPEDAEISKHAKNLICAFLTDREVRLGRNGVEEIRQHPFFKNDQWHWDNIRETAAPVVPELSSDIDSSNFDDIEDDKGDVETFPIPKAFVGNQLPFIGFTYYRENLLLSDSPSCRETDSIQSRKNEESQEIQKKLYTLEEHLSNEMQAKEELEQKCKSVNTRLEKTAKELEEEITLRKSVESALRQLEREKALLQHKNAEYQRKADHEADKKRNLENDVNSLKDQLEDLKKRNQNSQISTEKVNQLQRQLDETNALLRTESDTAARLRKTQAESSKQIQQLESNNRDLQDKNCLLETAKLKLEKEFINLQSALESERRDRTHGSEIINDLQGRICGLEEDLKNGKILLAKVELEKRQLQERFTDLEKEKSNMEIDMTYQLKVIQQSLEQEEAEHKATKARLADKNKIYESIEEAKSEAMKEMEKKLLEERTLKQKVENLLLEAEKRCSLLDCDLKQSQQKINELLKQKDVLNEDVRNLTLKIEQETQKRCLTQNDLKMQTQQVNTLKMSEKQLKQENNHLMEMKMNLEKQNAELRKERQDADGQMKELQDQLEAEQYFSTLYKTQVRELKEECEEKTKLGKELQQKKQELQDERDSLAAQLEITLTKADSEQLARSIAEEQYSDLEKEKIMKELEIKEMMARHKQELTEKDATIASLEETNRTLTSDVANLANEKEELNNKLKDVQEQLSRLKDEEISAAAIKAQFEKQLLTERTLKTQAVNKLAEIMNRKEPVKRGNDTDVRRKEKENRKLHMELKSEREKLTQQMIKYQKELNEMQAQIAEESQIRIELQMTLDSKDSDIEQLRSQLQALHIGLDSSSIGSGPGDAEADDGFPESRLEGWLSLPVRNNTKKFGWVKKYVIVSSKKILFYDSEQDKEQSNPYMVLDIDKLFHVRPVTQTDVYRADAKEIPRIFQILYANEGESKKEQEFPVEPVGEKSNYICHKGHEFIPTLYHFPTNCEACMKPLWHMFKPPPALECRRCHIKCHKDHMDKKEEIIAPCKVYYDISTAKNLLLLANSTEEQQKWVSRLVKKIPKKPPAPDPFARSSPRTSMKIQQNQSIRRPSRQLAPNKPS
Sequence of Protein kinase C beta type (Homo sapiens) (P05771 2-671 limits assumed): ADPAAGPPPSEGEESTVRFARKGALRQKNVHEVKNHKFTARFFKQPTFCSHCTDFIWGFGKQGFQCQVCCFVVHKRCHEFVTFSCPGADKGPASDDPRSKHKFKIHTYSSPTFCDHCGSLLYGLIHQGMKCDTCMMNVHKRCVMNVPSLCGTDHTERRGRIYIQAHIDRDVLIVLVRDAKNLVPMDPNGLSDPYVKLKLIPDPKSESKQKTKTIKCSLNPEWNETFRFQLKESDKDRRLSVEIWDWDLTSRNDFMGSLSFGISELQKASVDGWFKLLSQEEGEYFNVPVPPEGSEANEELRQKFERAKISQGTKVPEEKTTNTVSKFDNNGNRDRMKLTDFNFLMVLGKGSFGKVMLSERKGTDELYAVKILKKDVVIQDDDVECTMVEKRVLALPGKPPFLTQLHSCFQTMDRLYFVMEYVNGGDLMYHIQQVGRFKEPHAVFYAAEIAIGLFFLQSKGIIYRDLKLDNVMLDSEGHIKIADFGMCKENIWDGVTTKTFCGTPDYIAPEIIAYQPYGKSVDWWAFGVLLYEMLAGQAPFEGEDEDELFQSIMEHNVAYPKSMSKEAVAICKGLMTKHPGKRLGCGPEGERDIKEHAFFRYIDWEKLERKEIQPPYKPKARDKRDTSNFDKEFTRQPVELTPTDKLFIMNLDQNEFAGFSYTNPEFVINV

**Q.** For `OC1CCN(c2nc(-c3ccncc3)nc3sc4c(c23)CCCC4)CC1`, which IC50 [1] is on record?
**A.** Its IC50 is 2400 nM.

**Q.** And the EC50 [2]?
**A.** The EC50 was “Not Active”.

**Q.** What about the inhibition (Bos taurus [3]) of the same molecule?
**A.** The inhibition was “inactive”.

**Q.** With `NCCN1CCN(c2nc(-c3ccncc3)nc3sc4c(c23)CCCC4)CC1` as the molecule, how does the IC50 [1] read?
**A.** The IC50 was 420 nM.

**Q.** For `CN(C)C1CCN(c2nc(-c3ccncc3)nc3sc4c(c23)CCCC4)CC1`, which EC50 ([2]; read-out: EC50) is on record?
**A.** The EC50 was 300 nM.

**Q.** Which results are given for `NCC1CCN(c2nc(-c3ccncc3)nc3sc4c(c23)CCCC4)CC1`?
**A.** inhibition (Bos taurus [4]): Active; Ratio [5]: 2.3; inhibition [6]: Active; AUC [7]: 4373 ng·h/mL; IC50 [8]: 70 nM; IC50 [1]: 520 nM; IC50 [9]: 4080 nM; beta t1/2 [10]: 2.77 h; inhibition (Homo sapiens [11]): Active; concentration at 24 h [12]: 375 ng/g; Tmax [13]: 7 h; Ratio [14]: 2; EC50 [15]: 6650 nM; Ratio [16]: 1.3; Ratio IC50 (Homo sapiens [17]): 7.5; IC50 [18]: 500 nM; AUC [19]: 6762 ng·h/mL; inhibition [20]: Active; inhibition (Rattus norvegicus [21]): Active; EC50 ([2]; read-out: EC50): 71 nM; inhibition (HEK293 [22]): Active; F [23]: 81.7%; inhibition (Bos taurus [24]): Active; beta t1/2 [25]: 7.83 h; Activity (HEK293 [26]): Non-Toxic; IC50 [27]: 1640 nM; t1/2 [28]: > 1 h; Kp at 4 h [29]: 2.9; inhibition (INH) (Rattus norvegicus [30]): 100%; Cmax [31]: 488 ng/mL; Activity (Rattus norvegicus [32]): Non-Toxic

**Q.** Which IC50 [33] does the source give for `CN1CCN(c2nc(-c3ccncc3)nc3sc4c(c23)CCCC4)CC1` here?
**A.** The IC50 was 3700 nM.

**Q.** With `c1cc(-c2cc(N3CCNCC3)c3c4c(sc3n2)CCCC4)ccn1` as the molecule, how does the IC50 [1] read?
**A.** The IC50 was 1150 nM.

**Q.** And the inhibition (Bos taurus [34])?
**A.** The inhibition was “inactive”.

**Q.** And the EC50 [2]?
**A.** Its EC50 is “Not Active”.

**Q.** Which inhibition (Bos taurus [35]) does the source give for `c1cc(-c2nc(N3CCNCC3)c3c4c(sc3n2)CCCC4)ccn1` here?
**A.** Its inhibition is “inactive”.

**Q.** And the inhibition (Bos taurus [34])?
**A.** Its inhibition is “inactive”.

**Q.** What about the Activity [36] of the same molecule?
**A.** Its Activity is “Toxic”.

**Q.** What about the EC50 [2] of the same molecule?
**A.** Its EC50 is “Not Active”.

**Q.** Which IC50 [1] does the source give for `c1cc(-c2nc(NCCN3CCNCC3)c3c4c(sc3n2)CCCC4)ccn1` here?
**A.** The IC50 was 11100 nM.

**Q.** Which EC50 ([2]; read-out: EC50) does the source give for `NC1CCN(c2nc(-c3ccncc3)nc3sc4c(c23)CCCC4)CC1` here?
**A.** Its EC50 is 300 nM.
